Assay results published in PubChem BioAssay (NCI).
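Assay format: 96-well plates, 48-hour exposure. GI50 = concentration required for 50% inhibition of growth. TGI is the concentration that stops growth completely.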

How the values were obtained:
Assay in all cases: NCI anticancer screen, dose series, 48 h
HS 578T breast = test system: HS 578T breast
KM12 colon = test system: KM12 colon
SR leukemia = test system: SR leukemia
UACC-62 melanoma = test system: UACC-62 melanoma
EKVX NSCLC = test system: EKVX NSCLC
HOP-62 NSCLC = test system: HOP-62 NSCLC
A549 NSCLC = test system: A549 NSCLC
OVCAR-3 ovarian = test system: OVCAR-3 ovarian
U251 CNS = test system: U251 CNS
SK-MEL-5 melanoma = test system: SK-MEL-5 melanoma
SF-295 CNS = test system: SF-295 CNS
MDA-MB-231 breast = test system: MDA-MB-231 breast
786-0 renal = test system: 786-0 renal
TK-10 renal = test system: TK-10 renal
M14 melanoma = test system: M14 melanoma
ACHN renal = test system: ACHN renal
OVCAR-8 ovarian = test system: OVCAR-8 ovarian
SK-MEL-28 melanoma = test system: SK-MEL-28 melanoma
SK-OV-3 ovarian = test system: SK-OV-3 ovarian
UACC-257 melanoma = test system: UACC-257 melanoma
SK-MEL-2 melanoma = test system: SK-MEL-2 melanoma
HCT-15 colon = test system: HCT-15 colon
HOP-92 NSCLC = test system: HOP-92 NSCLC
NCI/ADR-RES ovarian = test system: NCI/ADR-RES ovarian
OVCAR-5 ovarian = test system: OVCAR-5 ovarian
SNB-19 CNS = test system: SNB-19 CNS
DU-145 prostate = test system: DU-145 prostate
NCI-H23 lung = test system: NCI-H23 lung
MOLT-4 leukemia = test system: MOLT-4 leukemia
SW-620 colon = test system: SW-620 colon
MDA-MB-435 = test system: MDA-MB-435
COLO 205 colon = test system: COLO 205 colon
SF-539 CNS = test system: SF-539 CNS
HL-60(TB) leukemia = test system: HL-60(TB) leukemia
NCI-H522 lung = test system: NCI-H522 lung
LOX IMVI melanoma = test system: LOX IMVI melanoma
SNB-75 CNS = test system: SNB-75 CNS
MCF7 breast = test system: MCF7 breast
PC-3 prostate = test system: PC-3 prostate
MALME-3M melanoma = test system: MALME-3M melanoma
SF-268 CNS = test system: SF-268 CNS
CAKI-1 renal = test system: CAKI-1 renal
OVCAR-4 ovarian = test system: OVCAR-4 ovarian
HCT-116 colon = test system: HCT-116 colon
NCI-H226 lung = test system: NCI-H226 lung
RPMI-8226 leukemia = test system: RPMI-8226 leukemia
T-47D breast = test system: T-47D breast
RXF 393 renal = test system: RXF 393 renal
K-562 leukemia = test system: K-562 leukemia
HCC-2998 colon = test system: HCC-2998 colon
IGROV1 ovarian = test system: IGROV1 ovarian
SN12C renal = test system: SN12C renal
A498 renal = test system: A498 renal
UO-31 renal = test system: UO-31 renal
NCI-H460 lung = test system: NCI-H460 lung
HT29 colon = test system: HT29 colon

## O=C(c1ccccc1)c1cc(Cl)ccc1OCCCCN1CCN(CCCCOc2ccc(Cl)cc2C(=O)c2ccccc2)CC1
HS 578T breast
  GI50: 2.19 µM
  TGI: 4.43 µM
KM12 colon
  GI50: 2.09 µM
  TGI: 4.55 µM
SR leukemia
  GI50: 1.83 µM
  TGI: 4.89 µM
UACC-62 melanoma
  GI50: 9.87 µM
  TGI: 21.9 µM
EKVX NSCLC
  GI50: 10.8 µM
  TGI: 24.7 µM
HOP-62 NSCLC
  GI50: 3.82 µM
  TGI: 13.6 µM
A549 NSCLC
  GI50: 6.6 µM
  TGI: 20.9 µM
OVCAR-3 ovarian
  GI50: 2.36 µM
  TGI: 5.78 µM
U251 CNS
  GI50: 2.03 µM
  TGI: 4.14 µM
SK-MEL-5 melanoma
  GI50: 2.34 µM
  TGI: 4.88 µM
SF-295 CNS
  GI50: 2 µM
  TGI: 4.15 µM
MDA-MB-231 breast
  GI50: 2.4 µM
  TGI: 5.75 µM
786-0 renal
  GI50: 1.96 µM
  TGI: 3.7 µM
TK-10 renal
  GI50: 4.26 µM
  TGI: 17 µM
M14 melanoma
  GI50: 2.01 µM
  TGI: 4.14 µM
ACHN renal
  GI50: 4.64 µM
  TGI: 16.1 µM
OVCAR-8 ovarian
  GI50: 1.82 µM
  TGI: 3.37 µM
SK-MEL-28 melanoma
  GI50: 11.5 µM
  TGI: 24.2 µM
SK-OV-3 ovarian
  GI50: 17.1 µM
  TGI: 31.9 µM
UACC-257 melanoma
  GI50: 3.07 µM
  TGI: 7.57 µM
SK-MEL-2 melanoma
  GI50: 2.58 µM
  TGI: 4.92 µM
HCT-15 colon
  GI50: 2.1 µM
  TGI: 4.27 µM
HOP-92 NSCLC
  GI50: 2.53 µM
  TGI: 13 µM
NCI/ADR-RES ovarian
  GI50: 2.93 µM
  TGI: 12 µM
OVCAR-5 ovarian
  GI50: 17.9 µM
  TGI: 48.1 µM
SNB-19 CNS
  GI50: 10 µM
  TGI: 22.8 µM
DU-145 prostate
  GI50: 2.74 µM
  TGI: 10.1 µM
NCI-H23 lung
  GI50: 4.73 µM
  TGI: 18.3 µM
MOLT-4 leukemia
  GI50: 3.3 µM
  TGI: 7.5 µM
SW-620 colon
  GI50: 2.92 µM
  TGI: 8.5 µM
MDA-MB-435
  GI50: 3.65 µM
  TGI: 11.9 µM
COLO 205 colon
  GI50: 1.95 µM
  TGI: 4.78 µM
SF-539 CNS
  GI50: 4.8 µM
  TGI: 15.6 µM
HL-60(TB) leukemia
  GI50: 2.3 µM
  TGI: 4.9 µM
NCI-H522 lung
  GI50: 2.09 µM
  TGI: 3.83 µM
LOX IMVI melanoma
  GI50: 1.73 µM
  TGI: 3.21 µM
SNB-75 CNS
  GI50: 6.98 µM
  TGI: 24.9 µM
MCF7 breast
  GI50: 1.98 µM
  TGI: 4.83 µM
PC-3 prostate
  GI50: 3.59 µM
  TGI: 13.5 µM
MALME-3M melanoma
  GI50: 1.61 µM
  TGI: 3.77 µM
SF-268 CNS
  GI50: 7.03 µM
  TGI: 23.8 µM
CAKI-1 renal
  GI50: 4.08 µM
  TGI: 15.1 µM
OVCAR-4 ovarian
  GI50: 6.63 µM
  TGI: 20.5 µM
HCT-116 colon
  GI50: 1.79 µM
  TGI: 3.38 µM
NCI-H226 lung
  GI50: 13.2 µM
  TGI: 32.2 µM
RPMI-8226 leukemia
  GI50: 1.16 µM
  TGI: 2.8 µM
T-47D breast
  GI50: 4.59 µM
  TGI: 22.4 µM
RXF 393 renal
  GI50: 2.53 µM
  TGI: 5.08 µM
K-562 leukemia
  GI50: 1.9 µM
  TGI: 4.87 µM
HCC-2998 colon
  GI50: 2.13 µM
  TGI: 4.05 µM
IGROV1 ovarian
  GI50: 1.6 µM
  TGI: 3.22 µM
SN12C renal
  GI50: 4.48 µM
  TGI: 18 µM
A498 renal
  GI50: 15.2 µM
  TGI: 28.6 µM
UO-31 renal
  GI50: 3.86 µM
  TGI: 15.1 µM
NCI-H460 lung
  GI50: 2.17 µM
  TGI: 4.87 µM
HT29 colon
  GI50: 2.59 µM
  TGI: 7.66 µM
